Experimental data from ChEMBL document CHEMBL3400031, “Histone H3 peptide based LSD1-selective inhibitors” (Bioorg Med Chem Lett, 2015).
Numbered stars: 1 amine (or outer) side, 2 acyl side, 3 side chain; on linkers, the order of the positions; unused ones are H or OH. Square brackets hold non-standard residues; d marks the D form. Peptide text beside a SMILES is read from it. X1 = O=C([C@H](CCCCNC1CC1c1ccccc1)N[*:1])[*:2]

Columns and labels:
[1] = target: T1, Amine oxidase [flavin-containing] B (Homo sapiens, UniProt P27338); assay: Inhibition of human MAOB using (4S)-4,5-dihydro-2-(6-hydroxybenzothiazolyl)-4-thiazolecarboxylic acid substrate incubated for 60 mins by luciferin detection based chemiluminescence assay
T1 sequence (P27338 whole entry): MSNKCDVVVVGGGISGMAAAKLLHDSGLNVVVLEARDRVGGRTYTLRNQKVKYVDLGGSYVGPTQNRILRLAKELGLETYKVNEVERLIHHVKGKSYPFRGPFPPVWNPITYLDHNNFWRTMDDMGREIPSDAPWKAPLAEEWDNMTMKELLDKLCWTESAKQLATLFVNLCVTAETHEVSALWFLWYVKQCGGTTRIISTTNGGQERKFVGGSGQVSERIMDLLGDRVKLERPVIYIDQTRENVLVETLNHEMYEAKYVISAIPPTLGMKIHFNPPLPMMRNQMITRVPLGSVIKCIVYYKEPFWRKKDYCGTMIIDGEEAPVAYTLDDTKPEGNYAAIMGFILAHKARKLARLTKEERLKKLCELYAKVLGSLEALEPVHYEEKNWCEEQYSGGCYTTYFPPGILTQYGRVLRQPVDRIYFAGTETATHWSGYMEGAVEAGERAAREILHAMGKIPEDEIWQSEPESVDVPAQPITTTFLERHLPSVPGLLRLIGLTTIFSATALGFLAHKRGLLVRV

[2] = target: T2, Amine oxidase [flavin-containing] A (Homo sapiens, UniProt P21397); assay: Inhibition of human MAOA using (4S)-4,5-dihydro-2-(6-hydroxybenzothiazolyl)-4-thiazolecarboxylic acid substrate incubated for 60 mins by luciferin detection based chemiluminescence assay
T2 sequence (P21397 whole entry): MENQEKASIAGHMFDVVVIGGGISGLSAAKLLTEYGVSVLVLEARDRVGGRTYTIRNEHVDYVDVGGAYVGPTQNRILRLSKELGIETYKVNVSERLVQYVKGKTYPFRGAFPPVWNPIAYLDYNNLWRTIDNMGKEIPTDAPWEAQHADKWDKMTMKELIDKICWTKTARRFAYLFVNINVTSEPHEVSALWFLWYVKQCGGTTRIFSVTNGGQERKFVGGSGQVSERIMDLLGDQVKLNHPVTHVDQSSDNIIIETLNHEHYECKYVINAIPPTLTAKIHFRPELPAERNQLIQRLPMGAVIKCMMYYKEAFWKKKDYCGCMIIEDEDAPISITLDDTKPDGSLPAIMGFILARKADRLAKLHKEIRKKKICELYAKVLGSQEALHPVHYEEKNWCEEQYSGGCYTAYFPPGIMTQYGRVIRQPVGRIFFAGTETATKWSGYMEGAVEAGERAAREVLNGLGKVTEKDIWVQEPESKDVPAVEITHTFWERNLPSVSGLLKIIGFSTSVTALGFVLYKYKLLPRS

[3] = target: Lysine-specific histone demethylase 1A (Homo sapiens, UniProt O60341); assay: Inhibition of human recombinant LSD1 assessed as effect on H2O2 production incubated for 30 mins using methylated peptide substrate, Amplex red reagent and peroxidase by fluorimetry

IC50 [1] [µM]	IC50 [2] [µM]	IC50 [3] [µM]	Compound
> 100	> 100	–	C[C@H](N)C(=O)N[C@@H](CCCNC(=N)N)C(=O)N[C@H](C(=O)N[C@@H](CCCCNC1CC1c1ccccc1)C(=O)N[C@@H](CCC(N)=O)C(=O)N[C@H](C(=O)N[C@@H](C)C(=O)N[C@@H](CCCNC(=N)N)C(=O)N[C@@H](CCCCN)C(=O)O)[C@@H](C)O)[C@@H](C)O (some centres undefined)
> 100	> 100	–	C[C@H](N)C(=O)N[C@@H](CCCNC(=N)N)C(=O)N[C@H](C(=O)N[C@@H](CCCCNC1CC1c1ccccc1)C(=O)N[C@@H](CCC(N)=O)C(=O)N[C@H](C(=O)N[C@@H](C)C(=O)N[C@@H](CCCNC(=N)N)C(=O)N[C@@H](CCCCN)C(=O)N[C@@H](CO)C(=O)N[C@H](C(=O)NCC(=O)NCC(=O)O)[C@@H](C)O)[C@@H](C)O)[C@@H](C)O (some centres undefined)
> 100	> 100	–	C[C@H](N)C(=O)N[C@@H](CCCNC(=N)N)C(=O)N[C@H](C(=O)N[C@@H](CCCCNC1CC1c1ccccc1)C(=O)N[C@@H](CCC(N)=O)C(=O)N[C@H](C(=O)N[C@@H](C)C(=O)N[C@@H](CCCNC(=N)N)C(=O)N[C@@H](CCCCN)C(=O)N[C@@H](CO)C(=O)N[C@H](C(=O)NCC(=O)NCC(=O)N[C@@H](CCCCN)C(=O)N[C@@H](C)C(=O)N1CCC[C@H]1C(=O)N[C@@H](CCCNC(=N)N)C(=O)O)[C@@H](C)O)[C@@H](C)O)[C@@H](C)O (some centres undefined) (H-ART[X1]QTARKSTGGKAPR-OH)
> 100	> 100	> 10	C[C@H](N)C(=O)N[C@@H](CCCNC(=N)N)C(=O)N[C@H](C(=O)N[C@@H](CCCCNC1CC1c1ccccc1)C(=O)N[C@@H](CCC(N)=O)C(=O)O)[C@@H](C)O (some centres undefined) (H-ART[X1]Q-OH)
